The values below come from PMC5218480 (PLoS ONE, 2017).

The assay has as its system MV-4-11 cells. Nature of the assay: Gene expression microarray analysis (Affymetrix PrimeView) and GSEA. As to conditions: ProbeSet 11749551_a_at; LIST B. Also noted: RFU PODN (11730768_x_at) / Fold change /veh PODN (11730768_x_at) / RFU LINC00158 (11744669_a_at) / Fold change /veh LINC00158 (11744669_a_at) / RFU DUSP10 (11751237_a_at) / Fold change /veh DUSP10 (11751237_a_at) / RFU ID3 (11757404_x_at) / Fold change /veh ID3 (11757404_x_at) / RFU PLEKHG5 (11737974_s_at) / Fold change /veh PLEKHG5 (11737974_s_at) / RFU LRRC4B (11730491_at) / Fold change /veh LRRC4B (11730491_at) / RFU GIMAP4 (11747438_a_at) / Fold change /veh GIMAP4 (11747438_a_at) / RFU KRT8 (11758183_x_at) / Fold change /veh KRT8 (11758183_x_at) / RFU CNN1 (11734310_a_at) / Fold change /veh CNN1 (11734310_a_at) / RFU VPS37D (11726825_at) / Fold change /veh VPS37D (11726825_at) / RFU C10orf10 (11716522_x_at) / Fold change /veh C10orf10 (11716522_x_at) / RFU KIR2DL2 /// KIR2DL4 /// KIR2DL5A /// KIR2DL5B /// KIR2DS1 /// KIR2DS2 /// KIR2DS3 /// KIR2DS4 /// KIR3DL3 /// KIR3DL3 /// KIR3DS1 (11738374_at) / Fold change /veh KIR2DL2 /// KIR2DL4 /// KIR2DL5A /// KIR2DL5B /// KIR2DS1 /// KIR2DS2 /// KIR2DS3 /// KIR2DS4 /// KIR3DL3 /// KIR3DL3 /// KIR3DS1 (11738374_at) / RFU C1QL1 (11718748_at) / Fold change /veh C1QL1 (11718748_at) / RFU TMPRSS4 (11747572_a_at) / Fold change /veh TMPRSS4 (11747572_a_at) / RFU HAMP (11756126_x_at) / Fold change /veh HAMP (11756126_x_at) / RFU RNFT2 (11725882_a_at) / Fold change /veh RNFT2 (11725882_a_at) / RFU NR4A2 (11747474_a_at) / Fold change /veh NR4A2 (11747474_a_at) / RFU ABCC12 (11746883_a_at) / Fold change /veh ABCC12 (11746883_a_at) / RFU TMEM136 (11760407_x_at) / Fold change /veh TMEM136 (11760407_x_at) / RFU CLDN22 /// WWC2 (11732394_at) / Fold change /veh CLDN22 /// WWC2 (11732394_at) / RFU HLA-DPB1 (11760878_x_at) / Fold change /veh HLA-DPB1 (11760878_x_at) / RFU SPINT1 (11716480_a_at) / Fold change /veh SPINT1 (11716480_a_at) / RFU GAP43 (11754022_s_at) / Fold change /veh GAP43 (11754022_s_at) / RFU A4GNT (11735810_at) / Fold change /veh A4GNT (11735810_at) / RFU PRB3 (11715151_x_at) / Fold change /veh PRB3 (11715151_x_at) / RFU TUBB4B (11761932_at) / Fold change /veh TUBB4B (11761932_at) / RFU CAPN14 (11732068_a_at) / Fold change /veh CAPN14 (11732068_a_at) / RFU TMCC2 (11721928_a_at) / Fold change /veh TMCC2 (11721928_a_at) / RFU IRGQ (11745062_a_at) / Fold change /veh IRGQ (11745062_a_at) / RFU FAM174B (11720279_a_at) / Fold change /veh FAM174B (11720279_a_at) / RFU TMPRSS4 (11748680_a_at) / Fold change /veh TMPRSS4 (11748680_a_at) / RFU FAM212B (11763350_a_at) / Fold change /veh FAM212B (11763350_a_at) / RFU PLEKHG5 (11743358_a_at) / Fold change /veh PLEKHG5 (11743358_a_at) / RFU ZSCAN30 (11745921_a_at) / Fold change /veh ZSCAN30 (11745921_a_at) / RFU CMKLR1 (11741424_a_at) / Fold change /veh CMKLR1 (11741424_a_at) / RFU LOC101060620 /// MAPK8IP1 (11723275_at) / Fold change /veh LOC101060620 /// MAPK8IP1 (11723275_at) / RFU SPTSSB (11747773_x_at) / Fold change /veh SPTSSB (11747773_x_at) / RFU PRSS12 (11739890_at) / Fold change /veh PRSS12 (11739890_at) / RFU BIN1 (11741810_x_at) / Fold change /veh BIN1 (11741810_x_at) / RFU WNT11 (11732464_a_at) / Fold change /veh WNT11 (11732464_a_at) / RFU C10orf10 (11716521_a_at) / Fold change /veh C10orf10 (11716521_a_at) / RFU C5orf56 (11738089_at) / Fold change /veh C5orf56 (11738089_at) / RFU CYB561 (11721691_x_at) / Fold change /veh CYB561 (11721691_x_at) / RFU ANKRD19P (11752326_a_at) / Fold change /veh ANKRD19P (11752326_a_at) / RFU OR2T12 /// OR2T33 /// OR2T8 (11738714_s_at) / Fold change /veh OR2T12 /// OR2T33 /// OR2T8 (11738714_s_at) / RFU VCAN (11748164_a_at) / Fold change /veh VCAN (11748164_a_at) / RFU JSRP1 (11732532_at) / Fold change /veh JSRP1 (11732532_at) / RFU KRTAP10-11 (11738290_x_at) / Fold change /veh KRTAP10-11 (11738290_x_at) / RFU MYO3A (11730013_a_at) / Fold change /veh MYO3A (11730013_a_at) / RFU EBF3 (11725865_a_at) / Fold change /veh EBF3 (11725865_a_at) / RFU CAMK2N1 (11719241_x_at) / Fold change /veh CAMK2N1 (11719241_x_at) / RFU C5orf56 (11738088_a_at) / Fold change /veh C5orf56 (11738088_a_at) / RFU OLFML3 (11715873_a_at) / Fold change /veh OLFML3 (11715873_a_at) / RFU LOC100653217 /// NTM (11731650_a_at) / Fold change /veh LOC100653217 /// NTM (11731650_a_at) / RFU MAPK11 (11762145_a_at) / Fold change /veh MAPK11 (11762145_a_at) / RFU FIZ1 (11724087_x_at) / Fold change /veh FIZ1 (11724087_x_at) / RFU OASL (11726364_x_at) / Fold change /veh OASL (11726364_x_at) / RFU SOX15 (11748057_x_at) / Fold change /veh SOX15 (11748057_x_at) / RFU CD79A (11719716_a_at) / Fold change /veh CD79A (11719716_a_at) / RFU HIST1H1D (11736915_at) / Fold change /veh HIST1H1D (11736915_at) / RFU CASKIN2 (11723855_a_at) / Fold change /veh CASKIN2 (11723855_a_at) / RFU LOC730098 (11760151_x_at) / Fold change /veh LOC730098 (11760151_x_at) / RFU OR4N2 (11742367_at) / Fold change /veh OR4N2 (11742367_at) / RFU PRRT2 (11749266_a_at) / Fold change /veh PRRT2 (11749266_a_at) / RFU SNX32 (11753110_a_at) / Fold change /veh SNX32 (11753110_a_at) / RFU CDHR5 (11726645_a_at) / Fold change /veh CDHR5 (11726645_a_at) / RFU RCAN1 (11760418_a_at) / Fold change /veh RCAN1 (11760418_a_at) / RFU FAM167A (11723789_a_at) / Fold change /veh FAM167A (11723789_a_at) / RFU FAM26E (11764081_at) / Fold change /veh FAM26E (11764081_at) / RFU ISYNA1 (11749810_s_at) / Fold change /veh ISYNA1 (11749810_s_at) / RFU ACY1 (11761880_at) / Fold change /veh ACY1 (11761880_at) / RFU 11764098_at / Fold change /veh 11764098_at / RFU SAMD14 (11745864_x_at) / Fold change /veh SAMD14 (11745864_x_at) / RFU NPB (11741838_a_at) / Fold change /veh NPB (11741838_a_at) / RFU TMPRSS6 (11731388_a_at) / Fold change /veh TMPRSS6 (11731388_a_at) / RFU KRTAP10-2 (11738614_at) / Fold change /veh KRTAP10-2 (11738614_at) / RFU ARHGAP8 /// PRR5-ARHGAP8 (11727945_x_at) / Fold change /veh ARHGAP8 /// PRR5-ARHGAP8 (11727945_x_at) / RFU KRTAP5-7 /// NADSYN1 (11734609_at) / Fold change /veh KRTAP5-7 /// NADSYN1 (11734609_at) / RFU RASL12 (11751679_a_at) / Fold change /veh RASL12 (11751679_a_at) / RFU CDKN2B (11736163_a_at) / Fold change /veh CDKN2B (11736163_a_at) / RFU PRF1 (11729649_at) / Fold change /veh PRF1 (11729649_at) / RFU, ZNF638 /// ZNF638-IT1 / Fold change vs veh, ZNF638 /// ZNF638-IT1 / RFU, PANK3 / Fold change vs veh, PANK3 / RFU, SH3YL1 / Fold change vs veh, SH3YL1 / RFU, ZEB2 / Fold change vs veh, ZEB2 / RFU, NRIP1 / Fold change vs veh, NRIP1 / RFU, PTTG1IP / Fold change vs veh, PTTG1IP / RFU, CAPN2 / Fold change vs veh, CAPN2 / RFU, MED14 / Fold change vs veh, MED14 / RFU, SNORA58 / Fold change vs veh, SNORA58 / RFU, C1orf63 / Fold change vs veh, C1orf63 / RFU, LRRFIP1 / Fold change vs veh, LRRFIP1 / RFU, NDUFAF7 / Fold change vs veh, NDUFAF7 / RFU, SLC12A2 / Fold change vs veh, SLC12A2 / RFU, IBTK / Fold change vs veh, IBTK / RFU, ESF1 / Fold change vs veh, ESF1 / Fold change vs veh, TMEM50B / RFU, TAOK1 / Fold change vs veh, TAOK1 / RFU, ACBD3 / Fold change vs veh, ACBD3 / RFU, TMA16 / Fold change vs veh, TMA16 / RFU, RWDD3 / Fold change vs veh, RWDD3 / RFU, BCAT1 / Fold change vs veh, BCAT1 / RFU, EDEM3 / Fold change vs veh, EDEM3 / RFU, TMEM33 / Fold change vs veh, TMEM33 / RFU, WDR75 / Fold change vs veh, WDR75 / RFU, AHCTF1 / Fold change vs veh, AHCTF1 / RFU, TFRC / Fold change vs veh, TFRC / RFU, ZDHHC17 / Fold change vs veh, ZDHHC17 / RFU, NOM1 / Fold change vs veh, NOM1 / RFU, ARL8B / Fold change vs veh, ARL8B / RFU, ZBTB11 / Fold change vs veh, ZBTB11 / RFU, TAMM41 / Fold change vs veh, TAMM41 / RFU, KIAA1704 /// LOC100996395 / Fold change vs veh, KIAA1704 /// LOC100996395 / RFU, ING1 / Fold change vs veh, ING1 / RFU, TRMT61B / Fold change vs veh, TRMT61B / RFU, FUBP3 / Fold change vs veh, FUBP3 / RFU, TP53 / Fold change vs veh, TP53 / RFU, TNKS2 / Fold change vs veh, TNKS2 / RFU, ZFP14 / Fold change vs veh, ZFP14 / RFU, ACTR2 / Fold change vs veh, ACTR2 / RFU, PPP3R1 / Fold change vs veh, PPP3R1 / RFU, PIK3R1 / Fold change vs veh, PIK3R1 / RFU, HNRNPA1 / Fold change vs veh, HNRNPA1 / RFU, RNF170 / Fold change vs veh, RNF170 / RFU, ZNF28 / Fold change vs veh, ZNF28 / RFU, RNGTT / Fold change vs veh, RNGTT / RFU, OGT / Fold change vs veh, OGT / RFU, BRD1 / Fold change vs veh, BRD1 / RFU, MARS / Fold change vs veh, MARS / RFU, ZNF655 / Fold change vs veh, ZNF655 / RFU, FAHD1 / Fold change vs veh, FAHD1 / RFU, BDP1 / Fold change vs veh, BDP1 / RFU, LRRCC1 / Fold change vs veh, LRRCC1 / RFU, ARID1A / Fold change vs veh, ARID1A / RFU, ZNF146 / Fold change vs veh, ZNF146 / RFU, ZNF330 / Fold change vs veh, ZNF330 / RFU, GPN3 / Fold change vs veh, GPN3 / RFU, C9orf123 / Fold change vs veh, C9orf123 / RFU, N4BP2L2 / Fold change vs veh, N4BP2L2 / RFU, ARFIP1 / Fold change vs veh, ARFIP1 / RFU, FAM179B / Fold change vs veh, FAM179B / RFU, BCL10 / Fold change vs veh, BCL10 / RFU, UHRF1BP1L / Fold change vs veh, UHRF1BP1L / RFU, BET1 / Fold change vs veh, BET1 / RFU, CNOT2 / Fold change vs veh, CNOT2 / RFU, ZNF268 / Fold change vs veh, ZNF268 / Fold change vs veh, ZNF507 / RFU, DGCR2 / Fold change vs veh, DGCR2 / RFU, WDSUB1 / Fold change vs veh, WDSUB1 / Fold change vs veh, HSP90B1 /// MIR3652 / RFU, ADSS / Fold change vs veh, ADSS / RFU, GK / Fold change vs veh, GK / RFU, ZNF148 / Fold change vs veh, ZNF148 / RFU, TAF9 / Fold change vs veh, TAF9 / RFU, SLC1A5 / Fold change vs veh, SLC1A5 / RFU, SLMO2 / Fold change vs veh, SLMO2 / RFU, ABCC4 / Fold change vs veh, ABCC4 / RFU, LOC101060439 /// RAP1B / Fold change vs veh, LOC101060439 /// RAP1B / RFU, RFX7 / Fold change vs veh, RFX7 / RFU, GTPBP10 / Fold change vs veh, GTPBP10 / RFU, CNEP1R1 / Fold change vs veh, CNEP1R1 / RFU, BIVM-ERCC5 /// ERCC5 / Fold change vs veh, BIVM-ERCC5 /// ERCC5 / RFU, ILF3 / Fold change vs veh, ILF3 / RFU 11762660_at / Fold change /veh 11762660_at / RFU VCAN (11757783_s_at) / Fold change /veh VCAN (11757783_s_at) / RFU DDX43 (11728927_at) / Fold change /veh DDX43 (11728927_at) / RFU KRT8 (11758188_x_at) / Fold change /veh KRT8 (11758188_x_at) / RFU NKD1 (11759106_at) / Fold change /veh NKD1 (11759106_at) / RFU SRD5A1 (11742802_a_at) / Fold change /veh SRD5A1 (11742802_a_at) / RFU TPSAB1 /// TPSB2 (11721975_s_at) / Fold change /veh TPSAB1 /// TPSB2 (11721975_s_at) / RFU GSTM3 (11746129_a_at) / Fold change /veh GSTM3 (11746129_a_at) / RFU IL23R (11737362_x_at) / Fold change /veh IL23R (11737362_x_at) / RFU TMEM51 (11727254_a_at) / Fold change /veh TMEM51 (11727254_a_at) / RFU PIWIL2 (11732686_x_at) / Fold change /veh PIWIL2 (11732686_x_at) / RFU ORM1 (11744905_x_at) / Fold change /veh ORM1 (11744905_x_at) / RFU CCDC152 (11743942_at) / Fold change /veh CCDC152 (11743942_at) / RFU ECM1 (11717891_a_at) / Fold change /veh ECM1 (11717891_a_at) / RFU IL23R (11748794_a_at) / Fold change /veh IL23R (11748794_a_at) / RFU TNFAIP8L3 (11732012_x_at) / Fold change /veh TNFAIP8L3 (11732012_x_at) / RFU MBOAT4 (11741988_at) / Fold change /veh MBOAT4 (11741988_at) / RFU 11764193_at / Fold change /veh 11764193_at / RFU TMEM53 (11763286_at) / Fold change /veh TMEM53 (11763286_at) / RFU MAGEB2 (11727129_at) / Fold change /veh MAGEB2 (11727129_at) / RFU TMEM200A (11744735_a_at) / Fold change /veh TMEM200A (11744735_a_at) / RFU CCDC152 (11751479_a_at) / Fold change /veh CCDC152 (11751479_a_at) / RFU FAM211A (11726209_a_at) / Fold change /veh FAM211A (11726209_a_at) / RFU RGS16 (11746705_a_at) / Fold change /veh RGS16 (11746705_a_at) / RFU VCAN (11755009_s_at) / Fold change /veh VCAN (11755009_s_at) / RFU RHOB (11743442_s_at) / Fold change /veh RHOB (11743442_s_at) / RFU RGS16 (11720943_a_at) / Fold change /veh RGS16 (11720943_a_at) / RFU RGS16 (11720944_at) / Fold change /veh RGS16 (11720944_at) / RFU, VPS4B / Fold change vs veh, VPS4B / RFU, CREB1 / Fold change vs veh, CREB1 / RFU, DNAJC13 / Fold change vs veh, DNAJC13 / RFU, GNAQ / Fold change vs veh, GNAQ / RFU, CDK5R1 / Fold change vs veh, CDK5R1 / RFU, ZRANB3 / Fold change vs veh, ZRANB3 / RFU, CUL4A / Fold change vs veh, CUL4A / RFU, CCNY / Fold change vs veh, CCNY / RFU, UFL1 / Fold change vs veh, UFL1 / RFU, COG3 / Fold change vs veh, COG3 / RFU, DIAPH2 / Fold change vs veh, DIAPH2 / RFU, SKA2 / Fold change vs veh, SKA2 / RFU, AFF3 / Fold change vs veh, AFF3 / RFU, LMF1 / Fold change vs veh, LMF1 / RFU, IPO11 / Fold change vs veh, IPO11 / RFU, DFFB / Fold change vs veh, DFFB / RFU, FOXP1 / Fold change vs veh, FOXP1 / RFU, CARD8 / Fold change vs veh, CARD8 / RFU, STRN3 / Fold change vs veh, STRN3 / RFU, ADK / Fold change vs veh, ADK / RFU, RASSF2 / Fold change vs veh, RASSF2 / RFU, WIPF1 / Fold change vs veh, WIPF1 / RFU, LARP1B / Fold change vs veh, LARP1B / RFU, RASA1 / Fold change vs veh, RASA1 / RFU, RB1 / Fold change vs veh, RB1 / RFU, PPFIA1 / Fold change vs veh, PPFIA1 / RFU, MAT2A / Fold change vs veh, MAT2A / RFU, CCT5 / Fold change vs veh, CCT5 / RFU, WDR92 / Fold change vs veh, WDR92 / RFU, CUX1 / Fold change vs veh, CUX1 / RFU, TTC7A / Fold change vs veh, TTC7A / RFU, TMEM135 / Fold change vs veh, TMEM135 / RFU, DEPTOR / Fold change vs veh, DEPTOR / RFU, CPM / Fold change vs veh, CPM / RFU, DNAJB6 / Fold change vs veh, DNAJB6 / RFU, CACNA2D3 / Fold change vs veh, CACNA2D3 / RFU, DTX4 / Fold change vs veh, DTX4 / RFU, TFCP2 / Fold change vs veh, TFCP2 / RFU, GMCL1 /// GMCL1P1 / Fold change vs veh, GMCL1 /// GMCL1P1 / RFU, AEBP2 / Fold change vs veh, AEBP2 / RFU, SNHG1 /// SNORD22 /// SNORD25 /// SNORD26 /// SNORD27 /// SNORD28 /// SNORD29 /// SNORD31 / Fold change vs veh, SNHG1 /// SNORD22 /// SNORD25 /// SNORD26 /// SNORD27 /// SNORD28 /// SNORD29 /// SNORD31 / Fold change (Aza/veh), C12orf56 (ProbeSet 11735607_a_at) / Fold change (ACY-1035/veh), C12orf56 (ProbeSet 11735607_a_at) / Fold change (Aza/veh), FGFR1OP (ProbeSet 11751329_s_at) / Fold change (ACY-1035/veh), FGFR1OP (ProbeSet 11751329_s_at) / Fold change (Aza/veh), VPS36 (ProbeSet 11739960_a_at) / Fold change (ACY-1035/veh), VPS36 (ProbeSet 11739960_a_at) / RFU SYPL1 (11715823_x_at) / Fold change /veh SYPL1 (11715823_x_at) / RFU IGFBP7 (11715501_s_at) / Fold change /veh IGFBP7 (11715501_s_at) / RFU REEP3 (11722064_at) / Fold change /veh REEP3 (11722064_at) / RFU IGLL1 (11728026_x_at) / Fold change /veh IGLL1 (11728026_x_at): dose or concentration left out as unconfirmed. The class given is cell-based, human.

Each structure is given as a SMILES string.

With `Nc1ccc(-c2cccs2)cc1NC(=O)c1ccc2c(c1)cc(C1CC1)n2CCN1CCOCC1` [ACY-1035], the “Fold change vs veh, RNGTT” value is recorded as 0.96.
